Assays:
[1] = 101.33 kPa, Liquid; for viscosity: Capillary tube (Ostwald / Ubbelohde) method; for mass density: Vibrating tube method
[2] = refractive index (Na D-line) (dimensionless); conditions: 101.33 kPa, Liquid, Standard Abbe refractometry
[3] = mn = molality of the nth substance listed, in mol/kg; conditions: 101 kPa, Liquid, Vibrating tube method

CN(C)C=O [dimethylformamide]
Conditions | mass density, [1] [kg/m3] | refractive index, [2] | viscosity, [1] [mPa·s]
298.15 K | 943.8 | 1.4267 | 0.8605
308.15 K | 934.45 | 1.4225 | 0.7712
318.15 K | 924.75 | 1.418 | 0.6975
328.15 K | 914.9 | 1.4144 | 0.6374

COS(=O)(=O)[O-].Cn1cc[n+](C)c1 [1,3-dimethylimidazolium methylsulfate] + CC#N
mass density [kg/m3], [3]
Conditions | 298.15 K | 308.15 K | 318.15 K | 328.15 K
m1 = 0.0154 | 778.02 | 767.2 | 756.08 | 745.07
m1 = 0.0262 | 778.92 | 768.15 | 757.02 | 746.08
m1 = 0.0367 | 779.78 | 769.04 | 757.94 | 746.91
m1 = 0.0442 | 780.39 | 769.64 | 758.56 | 747.53
m1 = 0.0552 | 781.25 | 770.6 | 759.47 | 748.49
m1 = 0.0697 | 782.39 | 771.79 | 760.65 | 749.74
m1 = 0.1092 | 785.54 | 775.06 | 763.89 | 753.13
m1 = 0.1516 | 788.85 | 778.45 | 767.29 | 756.65
m1 = 0.2159 | 793.88 | 783.51 | 772.5 | 761.83
m1 = 0.2981 | 799.99 | 789.92 | 779.03 | 768.5
m1 = 0.4347 | 809.98 | 799.82 | 788.98 | 778.24
m1 = 0.5442 | 817.8 | 807.73 | 797.07 | 786.34
m1 = 0.8609 | 839.07 | 828.64 | 818.22 | 808.33

O [water]
Conditions | mass density, 328.15 K [kg/m3] | refractive index, 298.15 K | refractive index, 308.15 K | refractive index, 318.15 K | refractive index, 328.15 K | viscosity, 298.15 K [mPa·s] | viscosity, 308.15 K [mPa·s] | viscosity, 318.15 K [mPa·s] | viscosity, 328.15 K [mPa·s]
[1] | 985.62 | – | – | – | – | 0.8949 | 0.7207 | 0.5962 | 0.5042
[2] | – | 1.3325 | 1.3313 | 1.3298 | 1.3282 | – | – | – | –

COS(=O)(=O)[O-].Cn1cc[n+](C)c1 [1,3-dimethylimidazolium methylsulfate]
Conditions | mass density, [1] [kg/m3] | refractive index, [2] | viscosity, [1] [mPa·s]
298.15 K | 1341.52 | 1.481 | 72.16
308.15 K | 1334.05 | 1.4782 | 54.42
318.15 K | 1324.8 | 1.475 | 31.75
328.15 K | 1320.61 | 1.4732 | 22.75

COS(=O)(=O)[O-].Cn1cc[n+](C)c1 [1,3-dimethylimidazolium methylsulfate] + CN(C)C=O
mass density [kg/m3], [3]
Conditions | 298.15 K | 308.15 K | 318.15 K | 328.15 K
m1 = 0.0143 | 945.09 | 935.57 | 925.94 | 916.21
m1 = 0.0192 | 945.45 | 935.93 | 926.32 | 916.62
m1 = 0.0305 | 946.29 | 936.8 | 927.22 | 917.63
m1 = 0.0455 | 947.35 | 937.9 | 928.37 | 918.8
m1 = 0.06 | 948.34 | 938.95 | 929.46 | 919.9
m1 = 0.0821 | 949.86 | 940.49 | 930.98 | 921.44
m1 = 0.1125 | 951.98 | 942.64 | 933.15 | 923.55
m1 = 0.1679 | 955.78 | 946.48 | 937.03 | 927.44
m1 = 0.2459 | 961 | 951.8 | 942.42 | 932.69
m1 = 0.3069 | 964.96 | 955.78 | 946.45 | 936.8
m1 = 0.6259 | 984.18 | 975.15 | 965.75 | 956.63

CO [methanol]
Conditions | mass density, 298.15 K [kg/m3] | mass density, 308.15 K [kg/m3] | mass density, 318.15 K [kg/m3] | mass density, 328.15 K [kg/m3] | refractive index, 298.15 K | refractive index, 308.15 K | refractive index, 318.15 K | refractive index, 328.15 K | viscosity, 318.15 K [mPa·s] | viscosity, 328.15 K [mPa·s]
[1] | 786.53 | 777.09 | 767.48 | 757.75 | – | – | – | – | 0.5962 | 0.4792
[2] | – | – | – | – | 1.3272 | 1.3232 | 1.3185 | 1.3158 | – | –

C[S+](C)[O-] [dimethyl sulfoxide]
Conditions | mass density, [1] [kg/m3] | refractive index, [2] | viscosity, [1] [mPa·s]
298.15 K | 1095.27 | 1.4737 | 1.979
308.15 K | 1085.18 | 1.4701 | 1.622
318.15 K | 1075.24 | 1.4668 | 1.381
328.15 K | 1065.16 | 1.462 | 1.207

COS(=O)(=O)[O-].Cn1cc[n+](C)c1 [1,3-dimethylimidazolium methylsulfate] + CO
mass density [kg/m3], [3]
Conditions | 298.15 K | 308.15 K | 318.15 K | 328.15 K
m1 = 0.0108 | 787.65 | 778.14 | 768.55 | 758.82
m1 = 0.0199 | 788.47 | 778.98 | 769.42 | 759.7
m1 = 0.0341 | 789.69 | 780.24 | 770.71 | 761.02
m1 = 0.0419 | 790.3 | 780.9 | 771.38 | 761.68
m1 = 0.0531 | 791.11 | 781.85 | 772.32 | 762.63
m1 = 0.0711 | 792.35 | 783.26 | 773.6 | 764.11
m1 = 0.0929 | 794.09 | 784.9 | 775.34 | 765.65
m1 = 0.1212 | 796.29 | 787.16 | 777.61 | 767.99
m1 = 0.1679 | 799.9 | 790.82 | 781.31 | 771.8
m1 = 0.2084 | 802.98 | 793.97 | 784.46 | 775.01
m1 = 0.2504 | 806.12 | 797.15 | 787.7 | 778.32
m1 = 0.2973 | 809.59 | 800.65 | 791.16 | 781.85
m1 = 0.3949 | 816.69 | 807.86 | 798.36 | 789.21
m1 = 0.4965 | 823.95 | 815.03 | 805.55 | 796.68
m1 = 0.5976 | 831 | 822.1 | 812.65 | 803.73
m1 = 0.7303 | 839.93 | 830.93 | 821.45 | 812.4
m1 = 0.9907 | 856.57 | 847.45 | 838.09 | 828.74

CC#N [acetonitrile]
Conditions | mass density, [1] [kg/m3] | refractive index, [2] | viscosity, [1] [mPa·s]
298.15 K | 776.59 | 1.3411 | 0.3431
308.15 K | 765.76 | 1.3365 | 0.3171
318.15 K | 754.67 | 1.3327 | 0.2918
328.15 K | 743.6 | 1.3259 | 0.268

COS(=O)(=O)[O-].Cn1cc[n+](C)c1 [1,3-dimethylimidazolium methylsulfate] + C[S+](C)[O-]
mass density [kg/m3], [3]
Conditions | 298.15 K | 308.15 K | 318.15 K | 328.15 K
m1 = 0.0129 | 1095.83 | 1085.98 | 1075.96 | 1065.92
m1 = 0.0148 | 1095.95 | 1086.09 | 1076.07 | 1066.03
m1 = 0.0289 | 1096.8 | 1086.89 | 1076.88 | 1066.84
m1 = 0.0374 | 1097.18 | 1087.35 | 1077.34 | 1067.32
m1 = 0.0433 | 1097.5 | 1087.65 | 1077.66 | 1067.64
m1 = 0.0517 | 1097.95 | 1088.1 | 1078.12 | 1068.11
m1 = 0.0632 | 1098.58 | 1088.71 | 1078.72 | 1068.74
m1 = 0.0897 | 1100 | 1090.12 | 1080.15 | 1070.19
m1 = 0.1221 | 1101.67 | 1091.81 | 1081.86 | 1071.93
m1 = 0.1501 | 1103.05 | 1093.21 | 1083.28 | 1073.4
m1 = 0.1878 | 1104.92 | 1095.1 | 1085.22 | 1075.36
m1 = 0.2351 | 1107.24 | 1097.42 | 1087.6 | 1077.78
m1 = 0.2852 | 1109.64 | 1099.85 | 1090.06 | 1080.29
m1 = 0.3822 | 1114 | 1104.38 | 1094.63 | 1084.97
m1 = 0.5216 | 1120.2 | 1110.59 | 1100.91 | 1091.34
m1 = 0.8153 | 1132.05 | 1122.58 | 1113.1 | 1103.75
